Source: article PMC6770071, “XIAP as a Target of New Small Organic Natural Molecules Inducing Human Cancer Cell Death” (Cancers, 2019)
≈ marks a conversion by molar mass, not a printed value.

Legend:
[1] = tested on: MCF7 cells; test: TMRM mitochondrial membrane potential analysis, MCF7 cells; assay type: cell-based, human; conditions: gibbilimbol B/eriopodol A 30 µg/mL, erioquinol 10 µg/mL; for TMRM fluorescence (mitochondria membrane potential): MCF7, increasing time; for time to full response of TMRM fluorescence decrease: MCF7
Procedure: Using published protocols, mitochondria of MCF7 and U373 cells were labeled using TMRM, a voltage-sensitive cationic lipophilic dye, partitioning and accumulating in the mitochondrial matrix based upon the Nernst equation. After treatments, cells were trypsinised, counted and incubated with 100 nM TMRM for 30 min at 37 °C. Fluorescence was measured by using a Glomax Multi Detection System microplate reader (Promega), excitation wavelength: 525 nm; emission wavelength: 580–640 nm). After background subtraction, the data were normalised on cell number.

[2] = tested on: XIAP; test: XIAP expression by real-time PCR and western blot in MCF7 cells; assay type: cell-based, human; conditions: MCF7, increasing times, gibbilimbol B/eriopodol A 30 μg/mL, erioquinol 10 µg/mL; for XIAP mRNA levels: real-time PCR; for XIAP protein levels: western blot
Source text: (§1) Using published protocols, MCF7 and MCF10 cells were homogenised in RIPA lysis buffer, supplemented with a cocktail of protease inhibitors (cOmplete; Roche Diagnostics, Milano, Italy). Equal amounts of proteins were separated by 4–20% SDS-polyacrylamide gel electrophoresis (Criterion TGX Stain-free precast gels and Criterion Cell system; Bio-Rad, Hercules, CA, USA) and transferred onto nitrocellulose membrane using a Bio-Rad Trans-Blot Turbo System. When indicated, the membranes were probed using the rabbit monoclonal anti-cleaved caspase 7 and anti-XIAP (Cell Signaling Technology) primary antibodies. After the incubation with the appropriate horseradish-peroxidase-conjugated secondary antibody (Cell Signaling Technology), bands were visualised using the Clarity Western ECL substrate with a ChemiDoc MP imaging system (Bio-Rad). To monitor for potential artefacts in loading and transfer among samples in different lanes, the blots were routinely treated with the Restore Western Blot Stripping Buffer (ThermoFisher Scientific) and re-probed with the goat anti-Lactate dehydrogenase (LDH)-A (Santa Cruz Biotechnology) and the mouse anti-vinculin primary antibodies. The stain-free gel was used as loading control as well. When appropriated, bands were quantified for densitometry using the Bio-Rad Image Lab software.
The analysis of mRNA expression was performed as previously described. Briefly, total RNA from MCF7 cells was extracted with the High Pure RNA Isolation Kit (Roche Applied Science, Mannheim, Germany), according to the manufacturer’s protocol. First-strand cDNA was generated from 1 μg of total RNA using iScript Reverse Transcription Supermix (Bio-Rad). Primer pairs (Eurofins Genomics, Milano, Italy) for XIAP (NM_001167; forward ACCGTGCGGTGCTTTAGTT, reverse […]) and β-actin (NM_001101; forward […], reverse CACCTTCTACAAT GAGCTGCGTGTG) were designed to hybridise to unique regions of the appropriate gene sequence. PCR was performed using SsoAdvanced Universal SYBR Green Supermix and the CFX96 Touch Real-Time PCR Detection System (Bio-Rad). The fold change was determined relative to the selected control sample after normalising to β-actin (internal standard) by the formula 2^−ΔΔCT.

[3] = tested on: caspase 9 and 7; test: Cleaved-caspase 9 and 7 western blot / immunofluorescence in MCF7 cells; assay type: cell-based, human; conditions: gibbilimbol B/eriopodol A 30 µg/mL, erioquinol 10 µg/mL; for cleaved-caspase 7 staining, immunofluorescence: MCF7, 3 and 6 h; for caspase activation, western blot: MCF7, 3 h and 6 h
Procedure: Using published protocols, MCF7 or U373 cells cultured in 120-mm coverslips were fixed in 4% paraformaldehyde in 0.1 M PB, pH 7.4, for 10 min. Cells were pre-incubated for 1 h min with 5% of normal goat serum (Life Technologies, Monza, Italy) in 0.1 M PB (pH 7.4) containing 0.1% Triton X-100, before overnight incubation with the rabbit monoclonal anti-cleaved caspase 7 (Cell Signaling Technology, Danvers, MA, USA). In double-label immunofluorescence experiments, the mouse monoclonal anti-cytochrome c primary antibody (Cell Signaling Technology) was used in conjunction with the rabbit monoclonal primary antibody directed to COX IV (Cell Signaling Technology). For fluorescence detection, coverslips were stained with the appropriate Alexa Fluor secondary antibodies (Life Technologies) and mounted on glass slides in a ProLong Gold Antifade Mountant (Life Technologies). DAPI and/or fluorescein phalloidin (cytoskeleton detection) staining was also used. Cells were analysed with a DMI4000 B automated inverted microscope equipped with a DCF310 digital camera (Leica Microsystems, Wetzlar, Germany). When indicated, confocal imaging was performed with a TCS SP8 System (Leica Microsystems). Image acquisitions were controlled by the Leica Application Suite X.
as §1

[4] = tested on: U373 cells; test: ROS detection with DCFH-DA, U373 cells; assay type: cell-based, human; conditions: U373, 6 h; gibbilimbol B/eriopodol A 30 µg/mL, erioquinol 10 µg/mL
Procedure: (§2) MCF7 or U373 cells cultured in 120-mm coverslips were exposed to 30 µM DCFH-DA (0.1 M PB, pH 7.4) and fixed in 4% paraformaldehyde for 20 min. For fluorescence detection, coverslips were mounted on glass slides and observed with a laser-scanning confocal microscope (TCS SP8 System and Application suite X, Leica Microsystems). DAPI and fluorescein phalloidin (nuclei and cytoskeleton detection, respectively) staining was also used.

[5] = tested on: MCF7 cells; test: ROS detection with DCFH-DA, MCF7 cells; assay type: cell-based, human; conditions: MCF7, 6 h; gibbilimbol B/eriopodol A 30 µg/mL, erioquinol 10 µg/mL
Procedure: as §2

[6] = tested on: MCF10 cells; test: MTT cell viability assay, MCF10 cells; assay type: cell-based; conditions: Homo sapiens, 24 h, non-tumourigenic breast MCF10 cells
Procedure: Human U373 glioma, MCF7 breast cancer, A549 lung cancer and PC-3 prostate cancer cells were grown in Dulbecco’s Modified Eagle Medium (DMEM), supplemented with 10% foetal bovine serum, 2 mM glutamine, 100 U/mL penicillin/streptomycin, at 37 °C in a humidified atmosphere containing 5% CO2 (logarithmic growth phase, routine passages every 3 days). The human breast epithelial cell line MCF10 was cultured in DMEM/F12 Ham’s Mixture supplemented with 5% horse serum, epithelial growth factor 20 ng/mL, insulin 10 μg/mL, hydrocortisone 0.5 mg/mL, cholera toxin 100 ng/mL, and 100 U/mL penicillin/streptomycin. […]
(§3) U373, MCF7, A549, PC-3, HUVEC, and MCF10 cell viability was determined by MTT assay using published protocols. MTT absorbance was quantified spectrophotometrically using a Glomax Multi Detection System microplate reader (Promega, Milano, Italy).
Statistical significance of raw data between the groups in each experiment was evaluated using unpaired Student’s t-test (single comparisons) or one-way ANOVA followed by the Newman-Keuls post-test (multiple comparisons). The IC50 and Emax concentration were determined by non-linear regression curve analysis of the concentration-effect responses. […] The results were expressed as means ± standard error of mean (SEM) of the indicated n values.

[7] = tested on: U373 cells; test: MTT cell viability assay, U373 cells; assay type: cell-based, human; conditions: for IC50: Homo sapiens, U373 MG, MTT, 24 h, read-out: IC50 (μg/mL) U373 Cells
Procedure: Human U373 glioma, MCF7 breast cancer, A549 lung cancer and PC-3 prostate cancer cells were grown in Dulbecco’s Modified Eagle Medium (DMEM), supplemented with 10% foetal bovine serum, 2 mM glutamine, 100 U/mL penicillin/streptomycin, at 37 °C in a humidified atmosphere containing 5% CO2 (logarithmic growth phase, routine passages every 3 days). The human breast epithelial cell line MCF10 was cultured in DMEM/F12 Ham’s Mixture supplemented with 5% horse serum, epithelial growth factor 20 ng/mL, insulin 10 μg/mL, hydrocortisone 0.5 mg/mL, cholera toxin 100 ng/mL, and 100 U/mL penicillin/streptomycin. HUVEC were grown in EGM-2 Endothelial Cell Growth Medium-2 BulletKit (Lonza, Basel, Switzerland), according to the manufacturer’s protocol.
as §3
Statistical significance of raw data between the groups in each experiment was evaluated using unpaired Student’s t-test (single comparisons) or one-way ANOVA followed by the Newman-Keuls post-test (multiple comparisons). The IC50 and Emax concentration were determined by non-linear regression curve analysis of the concentration-effect responses. Potency values among concentration-response curves were compared with the F-test. Data belonging from different experiments were represented and averaged in the same graph. The GraphPad Prism software package (GraphPad Software, San Diego, CA, USA) was used. The results were expressed as means ± standard error of mean (SEM) of the indicated n values.

Row | Structure (SMILES) | TMRM fluorescence (mitochondria membrane potential) [1] | time to full response of TMRM fluorescence decrease [1] [h] | XIAP mRNA levels [2] | XIAP protein levels [2] | cleaved-caspase 7 staining, immunofluorescence [3] | caspase activation, western blot [3] | ROS (DCFH-DA staining) [4] | ROS (DCFH-DA staining) [5] | IC50 [6] [µg/mL] | IC50 [7] [µg/mL] | concentration-dependent inhibition of MTT absorbance with 50 µM necrostatin-1 and 10 µM ferrostatin-1 ([7]; U373, 24 h, 2 h pre-treatment with inhibitors)
1 | CCCCCC/C=C\CCC1(O)C=CC(=O)C=C1 [Erioquinol, (Z)-4-(dec-3′-enyl)-4-hydroxycyclohexa-2,5-dien-1-one] | comparable decrease in TMRM fluorescence vs. control | ≤ 1 | did not significantly modify | did not significantly modify | positive cells were absent | did not display any sign of caspase 7 activity | marked accumulation of ROS | marked accumulation of ROS | 1.7 (≈ 6.84 µM) | 1.78 (≈ 7.17 µM) | did not change
2 | CCCCCC/C=C/CCc1ccc(O)cc1 [Gibbilimbol B, (E)-4-(dec-3′-enyl)phenol] | comparable decrease in TMRM fluorescence vs. control | ≤ 1 | did not significantly modify | did not significantly modify | intensive cleaved-caspase 7 staining | activation of caspase 9 and 7 | absent | absent | 17.1 (≈ 73.6 µM) | 16.8 (≈ 72.3 µM) | –
